Key:
[1] = source not given; cited from earlier work
[2] = Drug transport clearance at the brain cell membrane in the PBPK model; set-up: species or system rat; conditions: comparison of QBCM_in/QBCM_out with QBBB_in/QBBB_out
[3] = Empirical plasma PK model; format: in vivo, rat; conditions: for clearance: rat, plasma, iv
Asymmetry factors = assay: Asymmetry factors; set-up: species or system rat; conditions: for AFin2, asymmetry factor: into CSFLV at BCSFB1; for AFin2, asymmetry factor / AFout2, asymmetry factor: calculated from Kp,uu,CSFLV; for AFin3, asymmetry factor: into CSFTFV at BCSFB2; for AFin3, asymmetry factor / AFout3, asymmetry factor: calculated from Kp,uu,CSFCM; for AFin1, asymmetry factor: into brainECF at BBB; for AFin1, asymmetry factor / AFout1, asymmetry factor: calculated from Kp,uu,brainECF; for AFout2, asymmetry factor: out from CSFLV at BCSFB1; for AFout3, asymmetry factor: out from CSFTFV at BCSFB2; for AFout1, asymmetry factor: out from brainECF at BBB
[4] = source not given; cited from earlier work; remark: listed apart in the source
[5] = rat; cited from earlier work
Free fraction in brain = format: in vitro ADME; conditions: rat
[6] = ref fu,p references of Table SI; cited from earlier work
[7] = rat plasma PK model, estimate (RSE, %)
[8] = rat plasma PK model, parameter estimate (RSE, %)

Row | Compound | Charge class [1] | what limits the transport clearance from brainMV, via brainECF, to brainICF [2] | ɷ_CLPL, interindividual variability [3, 7] | ɷ_QPL_PER2, interindividual variability [3, 7] | ɷ_VPL, interindividual variability [3, 7] | VPER1, distribution volume of the peripheral compartment 1 [3, 8] | VPER2, distribution volume of the peripheral compartment 2 [3, 8] | VPL, distribution volume of the central compartment [3, 8] | clearance [3] [mL/min] | AFin2, asymmetry factor (Asymmetry factors) | AFin3, asymmetry factor (Asymmetry factors) | AFin1, asymmetry factor (Asymmetry factors) | AFout2, asymmetry factor (Asymmetry factors) | AFout3, asymmetry factor (Asymmetry factors) | AFout1, asymmetry factor (Asymmetry factors) | ɷ_QPL_PER1, interindividual variability [3, 7] | ɷ_VPER1, interindividual variability [3, 7] | further results
1 | CN(Cc1cnc2nc(N)nc(N)c2n1)c1ccc(C(=O)N[C@@H](CCC(=O)O)C(=O)O)cc1 [Methotrexate] | Acid | limited by QBCM_in and QBCM_out | 37.4 (46.8) % | 42.5 (42.0) % | 40.4 (75.5) % | 111 (14.6) mL | 83.5 (34.9) mL | 28.0 (55.0) mL | 8.04 | – | – | – | – | – | – | – | – | –
2 | Cc1nc2n(c(=O)c1CCN1CCC(c3noc4cc(F)ccc34)CC1)CCCC2 [Risperidone] | Base | limited by QBBB_in and QBBB_out | 72.5 (38.7) % | – | 53.7 (78.8) % | – | – | 43,100 (28.1) mL | 886 | 1.0 | 1.0 | 1.0 | 1.3 | 1.5 | 1.3 | – | – | fu,b, free fraction in brain [4]: 0.065
3 | Cc1nc2n(c(=O)c1CCN1CCC(c3noc4cc(F)ccc34)CC1)CCCC2O (stereo not drawn) [Paliperidone] | Base | limited by QBBB_in and QBBB_out | 42.0 (62.5) % | – | 47.5 (81.4) % | 3,580 (35.8) mL | – | 26,400 (12.6) mL | 196 | 1.0 | 1.0 | 1.0 | 3.7 | 4.7 | 3.0 | – | – | Kp,uu,CSFCM, unbound CSFCM-to-plasma concentration ratio [5]: 0.50; Kp,uu,CSFLV, unbound CSFLV-to-plasma concentration ratio [5]: 0.50; Kp,uu,brainECF, unbound brain extracellular fluid-to-plasma concentration ratio [5]: 0.50; pKa (acid) [1]: 13.7; fraction unbound (Free fraction in brain): 0.065
4 | O=C1NC(=O)C(c2ccccc2)(c2ccccc2)N1 [Phenytoin] | Neutral | limited by QBBB_in and QBBB_out | 73.8 (12.5) % | – | 75.0 (27.2) % | 2,050 (7.50) mL | – | 943 (21.5) mL | 36 | 1.0 | 1.0 | 1.0 | 7.6 | 7.7 | 4.2 | – | – | Kp,uu,CSFCM, unbound CSFCM-to-plasma concentration ratio [5]: 0.26; Kp,uu,CSFLV, unbound CSFLV-to-plasma concentration ratio [5]: 0.26; Kp,uu,brainECF, unbound brain extracellular fluid-to-plasma concentration ratio [5]: 0.26; fu,b, free fraction in brain [4]: 0.080
5 | CCN1CCC[C@H]1CNC(=O)c1c(OC)ccc(Br)c1OC [Remoxipride] | Base | – | 31.0 (12.0) % | 76.7 (13.5) % | 64.1 (32.9) % | 253 (10.9) mL | 757 (4.00) mL | 83.7 (18.3) mL | 42.2 | – | – | – | – | – | – | 25.1 (12.1) % | – | –
6 | CN1CC[C@]23c4c5ccc(O)c4O[C@H]2[C@@H](O)C=C[C@H]3[C@H]1C5 [Morphine] | Base | – | 17.8 (39.5) % | 86.7 (19.3) % | 80.6 (17.2) % | – | – | – | – | – | – | – | – | – | – | 28.8 (29.4) % | 46.0 (15.3) % | ɷ_study1, interoccasional variability [3, 7]: 42.7 (16.2) %; ɷ_study2, interoccasional variability [3, 7]: 29.7 (30.5) %
7 | CCN1CCC[C@H]1CNC(=O)c1c(O)c(Cl)cc(Cl)c1OC [Raclopride] | Zwitterion | limited by QBBB_in and QBBB_out | 14.4 (29.8) % | – | – | 684 (19.2) mL | 493 (18.3) mL | 48.9 (16.3) mL | 46.4 | 1.0 | 1.0 | 1.0 | 1.1 | 1.9 | 1.4 | – | – | pKa (acid) [1]: 5.9; pKa (base) [1]: 9.0
8 | CC(=O)Nc1ccc(O)cc1 [Acetaminophen] | Neutral | – | – | – | – | 363 (33.1) mL | – | 49.5 (59.0) mL | – | – | – | – | – | – | – | – | 51.8 (86.0) % | fu,p, free fraction in plasma [6]: 0.81; Fraction, percentage of the drug which is reabsorbed by enterohepatic circulation [3, 8]: 0.693 (19.6)
9 | C=C[C@H]1C[N@@]2CC[C@H]1C[C@@H]2[C@@H](O)c1ccnc2ccc(OC)cc12 [Quinidine] | – | – | 23.9 (15.3) % | – | – | – | – | – | – | – | – | – | – | – | – | 24.3 (28.2) % | 12.8 (26.6) % | –
10 | CC(C)NCC(O)COc1ccc(CC(N)=O)cc1 (stereo not drawn) [Atenolol] | Base | – | – | – | – | – | – | – | – | – | – | – | – | – | – | – | – | –

Source: article PMC5702903 (CPT: Pharmacometrics & Systems Pharmacology, 2017)
